This data set can be described thus: Pharmacokinetic comparison of ADX-102 (reproxalap) and compound I-1 in rats. The settings on record: SD Rat. Format: in vivo, Sprague-Dawley rats.
The mark [1] stands for this setting: oral gavage 10 mg/kg, CMC/Tween.

Marks after values point to notes of the source that are not given here.

For `CC(C)(O)c1nc2ccc(Cl)cc2cc1N` [ADX-102], for the setting “intravenous data using captisol formulation”, the Vss stood at 1.36 L/kg. Under “intravenous data using captisol formulation, in mL/min/kg”, the CL is 23**. Under setting [1], the “AUC 0-inf/Dose” value is given as 64, the “AUC 0-t/Dose” value stood at 60, the AUC(0-inf) amounted to 640 ng·h/mL and the AUC(0-t) stood at 595 ng·h/mL. Besides, under setting [1], the Cmax was found to be 390 ng/mL, the Tmax turned out to be 0.5 h and the t1/2 was found to be 2.27 h.

The term Vss denotes the apparent volume that relates the amount in the body to the concentration in plasma or blood. Usually AUC(0-inf) stands for total exposure, with the tail of the curve extrapolated. Read a high AUC(0-inf) as more exposure. What is called AUC(0-t) is the area under the concentration-time curve up to a stated or last time point. Read a high AUC(0-t) as high exposure. What is called Cmax is the peak of the concentration-time curve. Usually Tmax stands for the time at which the peak concentration occurs.

Source of the values: patent US12064516B2, “Pharmaceutical formulations and uses thereof” (Aldeyra Therapeutics, Inc., priority 2020, dated 2024).
